Measured values from the supplement of paper PMC10627819.

Legend:
[1] = tested on: B. subtilis 168; assay: fitness (endpoint OD595 vs no drug) (fraction); higher = more growth
Outline: (§1)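 Growth medium was TSB, LB Lennox or CY, and plates were kept at 37 °C. Inoculation was at OD595 0.01 in 384-well plates, at 30 µl per well or 55 µl for S. pneumoniae. OD595 was monitored every 30 min for 14 h and background-subtracted using the first reading. Fitness is the optical density on entering stationary phase divided by the robust mean of no-drug controls, with values capped at 1.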

[2] = tested on: S. aureus DSM 20231; assay: as above
Outline: as §1

[3] = tested on: S. pneumoniae D39V; assay: as above
Outline: as §1

[4] = tested on: B. subtilis 168; assay: Bliss interaction score (quartile over a dose matrix) (fitness difference); higher = more antagonism (negative = synergy)
Outline: (§2)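 Each OD595 reading at entry into stationary phase was scaled to the robust mean of the untreated wells on its plate, with a ceiling of 1. These ratios define fitness, and single-drug fitness was inferred from combinations. The Bliss score compares observed fitness with the product-based expectation and is reported as quartiles across all replicate types, technical, biological and donor/recipient.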

[5] = tested on: S. aureus DSM 20231; assay: as above
Outline: as §2

[6] = tested on: S. aureus Newman; assay: as above
Outline: as §2

[7] = tested on: S. pneumoniae D39V; assay: as above
Outline: as §2
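For Bliss interaction score (quartile over a dose matrix) in this document: first quartile when negative (synergy) and third quartile when positive (antagonism).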
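For fitness (endpoint OD595 vs no drug) in this document: OD595 on entry to stationary phase over no-drug wells; at most 1.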

O=C(O[C@@H]1Cc2c(O)cc(O)cc2O[C@@H]1c1cc(O)c(O)c(O)c1)c1cc(O)c(O)c(O)c1 [EGCG] + CCC[C@@H]1C[C@@H](C(=O)N[C@@H]([C@H]2O[C@H](SC)[C@H](O)[C@@H](O)[C@H]2O)[C@@H](C)O)N(C)C1 [Lincomycin]
fitness
Conditions	partner 0.1 µg/mL	partner 0.2 µg/mL	partner 0.215 µg/mL	partner 0.4 µg/mL	partner 0.43 µg/mL	partner 0.8 µg/mL	partner 0.86 µg/mL
[1], first compound 6.25 µg/mL	0.889	0.88	–	0.908	–	–	–
[2], first compound 12.5 µg/mL	0.593	0.505	–	0.354	–	–	–
[2], first compound 25 µg/mL	0.592	0.553	–	0.306	–	–	–
[2], first compound 50 µg/mL	0.549	–	–	0.142	–	–	–
[3], first compound 12.5 µg/mL	–	0.429	0.739	0.273	0.565	0.0193	0.389
[3], first compound 25 µg/mL	–	0.483	0.713	0.439	0.668	0.0594	0.456
[3], first compound 50 µg/mL	–	0.328	0.565	0.182	0.671	–	–

fitness, [1], one replicate
Conditions	first compound 6.25 µg/mL	first compound 12.5 µg/mL	first compound 25 µg/mL
partner 0.8 µg/mL	0.908	0.761	0.709
partner 1.6 µg/mL	0.864	0.734	0.606

Conditions	Bliss interaction score
[4]	0.102
[5]	-0.119
[6]	-0.056
[7]	-0.112

CCC[C@@H]1C[C@@H](C(=O)N[C@@H]([C@H]2O[C@H](SC)[C@H](O)[C@@H](O)[C@H]2O)[C@H](C)Cl)N(C)C1 [Clindamycin] + CC(=O)NC[C@H]1CN(c2ccc(N3CCOCC3)c(F)c2)C(=O)O1 [Linezolid]
one replicate
Conditions	fitness
[1], first compound 0.0039 µg/mL, partner 0.125 µg/mL	0.943
[1], first compound 0.0039 µg/mL, partner 0.25 µg/mL	0.772
[1], first compound 0.0039 µg/mL, partner 0.5 µg/mL	0.448
[1], first compound 0.0078 µg/mL, partner 0.125 µg/mL	0.853
[1], first compound 0.0078 µg/mL, partner 0.25 µg/mL	0.632
[1], first compound 0.0078 µg/mL, partner 0.5 µg/mL	0.118
[1], first compound 0.0156 µg/mL, partner 0.125 µg/mL	0.835
[1], first compound 0.0156 µg/mL, partner 0.25 µg/mL	0.624
[1], first compound 0.0156 µg/mL, partner 0.5 µg/mL	0.385
[1], first compound 0.0625 µg/mL, partner 0.0625 µg/mL	0.696
[1], first compound 0.125 µg/mL, partner 0.0625 µg/mL	0.497
[1], first compound 0.25 µg/mL, partner 0.0625 µg/mL	0.387
[2], first compound 0.0312 µg/mL, partner 1 µg/mL	0.0507
[2], first compound 0.0625 µg/mL, partner 1 µg/mL	0.0324
[2], first compound 0.125 µg/mL, partner 1 µg/mL	0.0362

Conditions	fitness
[1], first compound 0.0625 µg/mL, partner 0.125 µg/mL	0.605
[1], first compound 0.0625 µg/mL, partner 0.25 µg/mL	0.0905
[1], first compound 0.0625 µg/mL, partner 0.5 µg/mL	0.0427
[1], first compound 0.125 µg/mL, partner 0.125 µg/mL	0.502
[1], first compound 0.125 µg/mL, partner 0.25 µg/mL	0.0971
[1], first compound 0.125 µg/mL, partner 0.5 µg/mL	0.0448
[1], first compound 0.25 µg/mL, partner 0.125 µg/mL	0.397
[1], first compound 0.25 µg/mL, partner 0.25 µg/mL	0.104
[1], first compound 0.25 µg/mL, partner 0.5 µg/mL	0.0468
[2], first compound 0.0312 µg/mL, partner 0.5 µg/mL	0.143
[2], first compound 0.0625 µg/mL, partner 0.25 µg/mL	0.13
[2], first compound 0.0625 µg/mL, partner 0.5 µg/mL	0.0789
[2], first compound 0.125 µg/mL, partner 0.125 µg/mL	0.0394
[2], first compound 0.125 µg/mL, partner 0.25 µg/mL	0.0405
[2], first compound 0.125 µg/mL, partner 0.5 µg/mL	0.0486
[3], first compound 0.0125 µg/mL, partner 0.2 µg/mL	0.624
[3], first compound 0.0125 µg/mL, partner 0.4 µg/mL	0.45
[3], first compound 0.0125 µg/mL, partner 0.8 µg/mL	0.264
[3], first compound 0.015 µg/mL, partner 0.105 µg/mL	0.81
[3], first compound 0.015 µg/mL, partner 0.21 µg/mL	0.748
[3], first compound 0.015 µg/mL, partner 0.42 µg/mL	0.627
[3], first compound 0.025 µg/mL, partner 0.2 µg/mL	0.412
[3], first compound 0.025 µg/mL, partner 0.4 µg/mL	0.345
[3], first compound 0.025 µg/mL, partner 0.8 µg/mL	0.237
[3], first compound 0.03 µg/mL, partner 0.105 µg/mL	0.707
[3], first compound 0.03 µg/mL, partner 0.21 µg/mL	0.683
[3], first compound 0.03 µg/mL, partner 0.42 µg/mL	0.539
[3], first compound 0.05 µg/mL, partner 0.2 µg/mL	0.176
[3], first compound 0.05 µg/mL, partner 0.4 µg/mL	0.148
[3], first compound 0.05 µg/mL, partner 0.8 µg/mL	0.112
[3], first compound 0.06 µg/mL, partner 0.105 µg/mL	0.579
[3], first compound 0.06 µg/mL, partner 0.21 µg/mL	0.544
[3], first compound 0.06 µg/mL, partner 0.42 µg/mL	0.277

Conditions	Bliss interaction score
[4]	0.215
[5]	0.027
[6]	-0.0929
[7]	0.132

CCC[C@@H]1C[C@@H](C(=O)N[C@@H]([C@H]2O[C@H](SC)[C@H](O)[C@@H](O)[C@H]2O)[C@@H](C)O)N(C)C1 [Lincomycin] + CCN(CC)CCOC(=O)c1ccc(N)cc1 [Procaine]
fitness
Conditions	partner 85.5 µg/mL	partner 171 µg/mL	partner 342 µg/mL
[1], first compound 0.1 µg/mL	0.917	0.932	0.891
[1], first compound 0.2 µg/mL	0.899	0.922	0.862
[1], first compound 0.4 µg/mL	0.875	0.875	0.853
[2], first compound 0.1 µg/mL	0.844	0.926	0.863
[2], first compound 0.2 µg/mL	0.749	0.837	0.821
[2], first compound 0.4 µg/mL	0.391	0.39	0.363
[3], first compound 0.215 µg/mL	0.812	0.783	0.784
[3], first compound 0.43 µg/mL	0.717	0.695	0.697
[3], first compound 0.86 µg/mL	–	0.39	0.495

fitness, [3], one replicate
Conditions	first compound 0.2 µg/mL	first compound 0.4 µg/mL	first compound 0.8 µg/mL
partner 85.5 µg/mL	0.748	0.673	0.0927
partner 171 µg/mL	0.809	0.693	0.148
partner 342 µg/mL	0.746	0.665	0.126

Conditions	Bliss interaction score
[4]	0.0306
[5]	0.0558
[6]	0.0563
[7]	-0.0294
